Results on 18 compounds are retold here after patent US12012417B2, “N-substituted tetrahydrothienopyridine derivatives and uses thereof” (NOVARTIS AG, priority 2018, dated 2024).

For experiment [1], the system named is Dengue 1 virus MY97-10245. Kind of experiment: High-content imaging cell-based flavivirus immunodetection (HCl-CFI) assay, Dengue 1. The note with it: for EC50: Dengue virus, A549, 48 h, read-out: Dengue 1 virus MY97-10245 in A549 using HCl [Inhibitor/IC50] Qualified AC50.
Experiment [2] concerns Dengue 4 virus MY01-22713. Kind of experiment: High-content imaging cell-based flavivirus immunodetection (HCl-CFI) assay, Dengue 4. The note with it: for EC50: Dengue virus, A549, 48 h, read-out: Dengue 4 virus MY01-22713 in A549 using HCl [Inhibitor/IC50] Qualified AC50, A549 cells, 48 h, viral E protein expression.
Experiment [3] has as its system Dengue 3 virus MY05-34640-WT-C6/36. As to the kind of experiment: High-content imaging cell-based flavivirus immunodetection (HCl-CFI) assay, Dengue 3. The note with it: for EC50: Dengue virus, A549, 48 h, read-out: Dengue 3 virus MY05-34640-WT-C6/36 in A549 using HCl [Inhibitor/IC50] Qualified AC50.
The subject of experiment [4] is DENV-2 (strain TSV01). Kind of experiment: Antiviral in vivo efficacy in dengue mouse model. The note with it: oral gavage, 3 consecutive days, AG129 mice, qRT-PCR. The protocol: Antiviral In Vivo Efficacy in Dengue Mouse Model
AG129 mice (lacking IFN-α/β and IFN-γ receptors, (Schul, W. et al. 2007. J. Infect. Dis., 195, 665-74)) was obtained from Biological Resource Center (BRC), Singapore. Male and female AG129 mice aged 8 to 14 weeks (weighed 20-30 grams, n=6 per group) were used. Infection of DENV-2 (strain TSV01) was given intraperitoneally (500 μL, 1.4×10^7 pfu/mL). The DENV-2 strain TSVO1 was used in the mouse model and was propagated in C6/36 mosquito cells. Compounds were formulated (% w/w) in either 0.5% methylcellulose, 0.5% Tween and 99.0% deionized water or 20% polyethylene glycol (PEG300), 10% Cremophor RH40, and 70% 100 mM pH 3 citrate buffer (% v/v). Compounds were dosed immediately after infection through oral gavage for 3 consecutive days. Terminal blood sample (anticoagulant: K2EDTA) was obtained for viremia read-out by qRT-PCR as previously described (Santiago, G. A., et al. 2013. PLoS Negl. Trop. Dis., 7, e2311).
(In general: In qPCR the cycle at which signal appears reflects the starting amount.)

Experiment [5] deals with Dengue 2 virus MY97-10340. As to the kind of experiment: High-content imaging cell-based flavivirus immunodetection (HCl-CFI) assay, Dengue 2. The note with it: for EC50: Dengue virus, A549, 48 h, read-out: Dengue 2 virus MY97-10340 in A549 using HCl [Inhibitor/IC50] Qualified AC50, A549 cells, MOI 0.3, 48 h, viral E protein expression. The essentials:
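A549 cells infected at MOI 0.3, treated with 3-fold, 10-point compound dilutions for 48 h. After paraformaldehyde fixation, viral E protein immunostained with 4G2 antibody and nuclei counterstained; imaged by high-content imaging. EC50 = concentration reducing E protein expression by 50%, from dose-response curves.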

Setting [6] is: A549 cells, 48 h, viral E protein expression.

Regarding `CC1Cc2sc(NC(=O)Cc3ccc(S(N)(=O)=O)cc3)c(C#N)c2CN1Cc1cccc(F)c1` (stereo not shown) [Example 53, N-(3-cyano-5-(3-fluorobenzyl)-6-methyl-4,5,6,7-tetrahydrothieno[3,2-c]pyridin-2-yl)-2-(4-sulfamoylphenyl)acetamide], the EC50 in experiment [1] was 100 to 1000 nM; in experiment [2], less than 100 nM; in experiment [3], less than 100 nM; in experiment [5], less than 100 nM. Moreover, the results for the “Log DENV-2 viremia reduction” value in experiment [4] (30 mg/kg b.i.d.), in experiment [4] (100 mg/kg b.i.d.) and in experiment [4] (100 mg/kg q.d.) were 0.80 Log, 1.78 Log and 1.06 Log, respectively.

In the case of `COc1cc(CC(=O)Nc2sc3c(c2C#N)CN(CC2CCCCC2)CC3)ccc1S(N)(=O)=O` [Example 83, N-(3-cyano-5-(cyclohexylmethyl)-4,5,6,7-tetrahydrothieno[3,2-c]pyridin-2-yl)-2-(3-methoxy-4-sulfamoylphenyl)acetamide], the “Log DENV-2 viremia reduction” value in experiment [4] (30 mg/kg b.i.d.) is recorded as 0.60 Log; in experiment [4] (100 mg/kg q.d.), 0.94 Log.

For `N#Cc1c(NC(=O)Cc2ccc(S(N)(=O)=O)cc2)sc2c1CCN(Cc1cccc(F)c1)C2` [Example 100, N-(3-cyano-6-(3-fluorobenzyl)-4,5,6,7-tetrahydrothieno[2,3-c]pyridin-2-yl)-2-(4-sulfamoylphenyl)acetamide], the “Log DENV-2 viremia reduction” value in experiment [4] (100 mg/kg b.i.d.) is 1.50 Log.

Consider `N#Cc1c(NC(=O)Cc2ccc(S(N)(=O)=O)cc2)sc2c1CCN(Cc1cc(F)ccc1F)C2` [Example 113, N-(3-cyano-6-(2,5-difluorobenzyl)-4,5,6,7-tetrahydrothieno[2,3-c]pyridin-2-yl)-2-(4-sulfamoylphenyl)acetamide], for which the EC50 in experiment [1] is 100 to 1000 nM; in experiment [2], less than 100 nM; in experiment [3], less than 100 nM; in experiment [5], less than 100 nM.

With `N#Cc1c(NC(=O)Cc2ccc(S(N)(=O)=O)cc2)sc2c1CCN(Cc1ccccc1Cl)C2` [Example 114, N-(6-(2-chlorobenzyl)-3-cyano-4,5,6,7-tetrahydrothieno[2,3-c]pyridin-2-yl)-2-(4-sulfamoylphenyl)acetamide], the EC50 is 100 to 1000 nM in experiment [1], less than 100 nM in experiment [2], 100 to 1000 nM in experiment [3] and 100 to 1000 nM in experiment [5].

Consider `Cc1cccc(CN2CCc3c(sc(NC(=O)Cc4ccc(S(N)(=O)=O)cc4)c3C#N)C2)c1F` [Example 115, N-(3-cyano-6-(2-fluoro-3-methylbenzyl)-4,5,6,7-tetrahydrothieno[2,3-c]pyridin-2-yl)-2-(4-sulfamoylphenyl)acetamide], for which the EC50 in experiment [1] was 100 to 1000 nM; in experiment [2] it was less than 100 nM; in experiment [3], less than 100 nM; in experiment [5], less than 100 nM.

On to `N#Cc1c(NC(=O)Cc2ccc(S(N)(=O)=O)cc2)sc2c1CCN(Cc1c(F)cccc1F)C2` [Example 116, N-(3-cyano-6-(2,6-difluorobenzyl)-4,5,6,7-tetrahydrothieno[2,3-c]pyridin-2-yl)-2-(4-sulfamoylphenyl)acetamide], for which the EC50 was 100 to 1000 nM in experiment [1], less than 100 nM in experiment [2], less than 100 nM in experiment [3] and less than 100 nM in experiment [5].

Consider `CS(=O)(=O)c1ccc(CC(=O)Nc2sc3c(c2C#N)CCN(Cc2ccc(F)c(F)c2)C3)cc1` [Example 117, N-(3-cyano-6-(3,4-difluorobenzyl)-4,5,6,7-tetrahydrothieno[2,3-c]pyridin-2-yl)-2-(4-(methylsulfonyl)phenyl)acetamide], for which the EC50 in experiment [1] is 100 to 1000 nM; in experiment [2], less than 100 nM; in experiment [3], 100 to 1000 nM; in experiment [5], 100 to 1000 nM.

With `Cc1cc(C)cc(CN2CCc3c(sc(NC(=O)Cc4ccc(S(C)(=O)=O)cc4)c3C#N)C2)c1` [Example 118, N-(3-cyano-6-(3,5-dimethylbenzyl)-4,5,6,7-tetrahydrothieno[2,3-c]pyridin-2-yl)-2-(4-(methylsulfonyl)phenyl)acetamide], the EC50 is more than 1000 nM in experiment [1], 100 to 1000 nM in experiment [2], 100 to 1000 nM in experiment [3] and 100 to 1000 nM in experiment [5].

For `CS(=O)(=O)c1ccc(CC(=O)Nc2sc3c(c2C#N)CCN(Cc2cccc(F)c2)C3)cc1` [Example 119, N-(3-cyano-6-(3-fluorobenzyl)-4,5,6,7-tetrahydrothieno[2,3-c]pyridin-2-yl)-2-(4-(methylsulfonyl)phenyl)acetamide], the EC50 is more than 1000 nM in experiment [1], less than 100 nM in experiment [2], less than 100 nM in experiment [3] and 100 to 1000 nM in experiment [5].

With `COC(=O)c1cccc(CN2CCc3c(sc(NC(=O)Cc4ccc(S(C)(=O)=O)cc4)c3C#N)C2)c1` [Example 120, methyl 3-((3-cyano-2-(2-(4-(methylsulfonyl)phenyl)acetamido)-4,7-dihydrothieno[2,3-c]pyridin-6(51-1)-yl)methyl)benzoate], the EC50 is more than 1000 nM in experiment [1], less than 100 nM in experiment [2], 100 to 1000 nM in experiment [3] and 100 to 1000 nM in experiment [5].

As for `CS(=O)(=O)c1ccc(CC(=O)Nc2sc3c(c2C#N)CCN(Cc2cc(Cl)ccc2Cl)C3)cc1` [Example 121, N-(3-cyano-6-(2,5-dichlorobenzyl)-4,5,6,7-tetrahydrothieno[2,3-c]pyridin-2-yl)-2-(4-(methylsulfonyl)phenyl)acetamide], the EC50 in experiment [1] is more than 1000 nM; in experiment [2], 100 to 1000 nM; in experiment [3] it was more than 1000 nM; in experiment [5], 100 to 1000 nM.

Regarding `CC1Cc2c(sc(NC(=O)Cc3ccc(S(N)(=O)=O)cc3)c2C#N)CN1Cc1cccc(F)c1` (stereo not shown) [Example 122, N-(3-cyano-6-(3-fluorobenzyl)-5-methyl-4,5,6,7-tetrahydrothieno[2,3-c]pyridin-2-yl)-2-(4-sulfamoylphenyl)acetamide], the EC50 in experiment [1] was more than 1000 nM; in experiment [2], less than 100 nM; in experiment [3] it was 100 to 1000 nM; in experiment [5], less than 100 nM.

With `CC1Cc2c(sc(NC(=O)Cc3ccc(S(N)(=O)=O)cc3)c2C#N)CN1Cc1cccc(F)c1` (stereo not shown) [Example 123, N-(3-cyano-6-(3-fluorobenzyl)-5-methyl-4,5,6,7-tetrahydrothieno[2,3-c]pyridin-2-yl)-2-(4-sulfamoylphenyl)acetamide], the “Dengue 1 virus MY97-10245 in A549 using HCl [Inhibitor/IC50] Qualified AC50” value in experiment [1] (setting [6]) is recorded as “+ (±≥1 μM)”. Further, the “Dengue 4 virus MY01-22713 in A549 using HCl [Inhibitor/IC50] Qualified AC50” value in experiment [2] (setting [6]) is “++ (1 μM>++≥0.1 μM)”. Moreover, in experiment [3] (setting [6]), the “Dengue 3 virus MY05-34640-WT-C6/36 in A549 using HCl [Inhibitor/IC50] Qualified AC50” value is listed as “++ (1 μM>++≥0.1 μM)”. In experiment [5] (A549 cells, MOI 0.3, 48 h, viral E protein expression), the “Dengue 2 virus MY97-10340 in A549 using HCl [Inhibitor/IC50] Qualified AC50” value is on record as “++ (1 μM>++≥0.1 μM)”.

Consider `N#Cc1c(NC(=O)Cc2ccc(S(N)(=O)=O)cc2)sc2c1CCN(Cc1cccc(F)c1)CC2` [Example 124, N-(3-cyano-6-(3-fluorobenzyl)-5,6,7,8-tetrahydro-4H-thieno[2,3-d]azepin-2-yl)-2-(4-sulfamoylphenyl)acetamide], for which the EC50 in experiment [1] is 100 to 1000 nM; in experiment [2] it was less than 100 nM; in experiment [3], less than 100 nM; in experiment [5], 100 to 1000 nM.

With `N#Cc1c(NC(=O)Cc2ccc(S(N)(=O)=O)cc2)sc2c1CCN(CC1CCCCC1)CC2` [Example 125, N-(3-cyano-6-(cyclohexylmethyl)-5,6,7,8-tetrahydro-4H-thieno[2,3-d]azepin-2-yl)-2-(4-sulfamoylphenyl)acetamide], the EC50 in experiment [1] was more than 1000 nM; in experiment [2], 100 to 1000 nM; in experiment [3], 100 to 1000 nM; in experiment [5], 100 to 1000 nM.

With `N#Cc1c(NC(=O)Cc2ccc(S(N)(=O)=O)cc2)sc2c1CCCN(Cc1cccc(F)c1)C2` [Example 126, N-(3-cyano-7-(3-fluorobenzyl)-5,6,7,8-tetrahydro-4H-thieno[2,3-c]azepin-2-yl)-2-(4-sulfamoylphenyl)acetamide], the EC50 in experiment [1] is 100 to 1000 nM; in experiment [2] it was less than 100 nM; in experiment [3] it was 100 to 1000 nM; in experiment [5], 100 to 1000 nM.

`N#Cc1c(NC(=O)Cc2ccc(S(N)(=O)=O)cc2)sc2c1CCCN(CC1CCCCC1)C2` [Example 127, N-(3-cyano-7-(cyclohexylmethyl)-5,6,7,8-tetrahydro-4H-thieno[2,3-c]azepin-2-yl)-2-(4-sulfamoylphenyl)acetamide]: the EC50 is more than 1000 nM in experiment [1], 100 to 1000 nM in experiment [2], 100 to 1000 nM in experiment [3] and 100 to 1000 nM in experiment [5].
